Earlier results as cited in patent publication US20140080864A1, “PHARMACETUICAL COMPOSITION COMPRISING DROTAVERINE” (CHINOIN PRIVATE CO LTD, priority 2011, published 2014).
Where a name gives a salt, the structure may show the parent alone.

Details: oral dose, healthy individuals; mean SD

- absolute bioavailability (mean): 58.2%
Compound: CCOc1ccc(/C=C2\NCCc3cc(OCC)c(OCC)cc32)cc1OCC [drotaverine hydrochloride, 1-(3,4-diethoxybenzylidene)-6,7-diethoxy-1,2,3,4-tetrahydroisoquinoine]
